Assay results taken from PubChem BioAssay AID653 (University of Pittsburgh Molecular Library Screening Center, 2007).
Calls of active or inactive are those of the source. No rule for the calls is given here.

Molecular target: Genome polyprotein (West Nile virus) (UniProt P06935)
Assay: inhibitors of WNV NS2B-NS3 protease, dose response, biochemical, confirmation (AID 653)
Details: WNV NS2B-NS3 protease enzymatic assay, fluorescence

Genome polyprotein (West Nile virus), sequence (P06935 1371-1501 limits assumed): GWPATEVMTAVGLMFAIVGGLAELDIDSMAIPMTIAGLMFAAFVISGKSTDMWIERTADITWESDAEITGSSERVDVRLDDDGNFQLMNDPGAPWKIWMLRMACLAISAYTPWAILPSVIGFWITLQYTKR
Genome polyprotein (West Nile virus), sequence (P06935 1502-1679 limits assumed): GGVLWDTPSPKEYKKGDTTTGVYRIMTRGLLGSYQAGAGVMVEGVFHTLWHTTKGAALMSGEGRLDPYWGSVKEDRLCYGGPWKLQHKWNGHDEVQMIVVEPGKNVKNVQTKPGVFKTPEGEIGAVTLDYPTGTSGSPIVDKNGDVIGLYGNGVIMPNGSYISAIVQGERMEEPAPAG

| IC50 | SMILES |
| --- | --- |
| > 50 µM (inactive) | C/C(CC1(O)C(=O)N(Cc2ccccc2)c2ccccc21)=N\O (stereo not given) |
| > 50 µM (inactive) | COc1cccc(NC(=O)CSc2nc3n[nH]c(C)c3c(=N)n2-c2cccc(OC)c2)c1 |
| > 50 µM (inactive) | COC(=O)CSC1=C(C#N)C(c2ccc(C)cc2)C2=C(CCCC2=O)N1 (stereo not given) |
| 34.1 µM | COc1ccc(N=CC2=C(O)CCCC2=O)cc1 |
| > 50 µM (inactive) | COc1ccc(OC)c(C2C(C(N)=O)=C(C)Nc3nc(-c4cccc(Cl)c4)nn32)c1 (stereo not given) |
